Like-named read-outs stand apart in the source and are kept apart here.
Experiments:
[1] = molecular target: T1, E. coli peptide deformylase (PDFEc) (Escherichia coli, UniProt P0A6K3); test: Slow-binding inhibition of PDFEc, kobs as a function of inhibitor concentration; assay type: biochemical
[2] = molecular target: T1, E. coli peptide deformylase (PDFEc); assay type: biochemical; details: for Initial rate: AMT 500 µM; for remaining activity at 500 µM: read-out: % of control, AMT 500 µM
[3] = solvent dimethylformamide, 1 week post
[4] = solvent ethanol, more than 2 days incubation

T1 sequence (P0A6K3 whole entry): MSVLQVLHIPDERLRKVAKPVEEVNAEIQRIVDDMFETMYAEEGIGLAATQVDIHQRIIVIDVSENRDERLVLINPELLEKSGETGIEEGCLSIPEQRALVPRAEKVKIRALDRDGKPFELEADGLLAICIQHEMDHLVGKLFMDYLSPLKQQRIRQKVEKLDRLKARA

`Nc1nnc(S)s1` [AMT, 2-amino-5-mercapto-1,3,4-thiadiazole] was tested. Which “enhancement of apparent binding affinity by the slow-binding step (Ki / Ki^*)” value [1] did it give?
The value was “about 30 fold”.

What about the “initial rate of the enzyme catalyzed reaction versus control” value ([2]; 500 µM AMT incubated in DMF for 30 min) of the same compound?
Its value is “barely lower than that of the control”.

What about the Initial rate ([2]; solvent acetonitrile, more than 2 days incubation) of the same compound?
The Initial rate was 16.3 mOD min^−1.

And the Initial rate [2, 3]?
Its Initial rate is 7.9 mOD min^−1.

What about the Initial rate ([2]; solvent dimethylformamide, tested immediately) of the same compound?
The Initial rate was 17.0 mOD min^−1.

And the Initial rate ([2]; solvent dimethylsulfoxide, more than 2 days incubation)?
Its Initial rate is 15.9 mOD min^−1.

And the Initial rate [2, 4]?
The Initial rate was 16.9 mOD min^−1.

And the “inhibitory effect on PDFEc” value ([2]; AMT freshly prepared in DMF, or dissolved in any other solvent and aged at 25 °C for any length of time)?
The value was “No inhibitory effect”.

And the “inhibition of PDFEc” value ([2]; AMT incubated with 0.06% H2O2 in buffer)?
Its value is “no inhibition”.

What about the remaining activity at 500 µM [2, 3] of the same compound?
Its remaining activity at 500 µM is 47%.

And the remaining activity at 500 µM [2, 4]?
The remaining activity at 500 µM was 100%.

Reference: article PMC2855385 (Biochimica et biophysica acta, 2009)
